Results: US11773096B2, “Small-molecule PI5P4K alpha/beta inhibitors and methods of treatment using same” (YALE UNIVERSITY, priority 2018, dated 2023)
Entries after “also recorded” stand apart in the source; their conditions may differ. Each block holds one molecule with its values, some of them ahead of it.

Key:
PI5P4Kβ = target: T1, PI5P4Kβ (Homo sapiens, UniProt P78356); assay: PI5P4Kβ kinase assay, 32P-labelled PI(4,5)P2 product resolved by TLC
T1 sequence (P78356 1-416): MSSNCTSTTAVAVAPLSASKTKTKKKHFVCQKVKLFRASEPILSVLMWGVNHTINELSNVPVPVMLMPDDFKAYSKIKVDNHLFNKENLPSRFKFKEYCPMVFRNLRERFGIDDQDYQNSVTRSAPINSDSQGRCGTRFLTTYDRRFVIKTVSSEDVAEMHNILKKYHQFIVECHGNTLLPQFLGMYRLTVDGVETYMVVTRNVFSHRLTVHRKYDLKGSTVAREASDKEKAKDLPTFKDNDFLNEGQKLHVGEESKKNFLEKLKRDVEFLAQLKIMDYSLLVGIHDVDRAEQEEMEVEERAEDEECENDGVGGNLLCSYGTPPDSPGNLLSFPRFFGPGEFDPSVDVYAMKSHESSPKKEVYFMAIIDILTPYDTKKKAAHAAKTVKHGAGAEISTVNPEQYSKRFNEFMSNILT
Method: (§2) Within each well, 10 μl final reaction mixture contains 100 μM PI(5)P, 2 μg/ml PI5P4Kα, 10 μM ATP (in FIG. 1B, ATP concentration varied from 10 μM to 100 μM), 10 mM MgCl2, 0.1% CHAPS and 20 mM HEPES pH 7.3. […] Kinase assay based on PI(4,5)P2 (product) detection was carried out in a 50 μl assay mixture containing 40 μM PI(5)P, 0.4 μg/ml PI5P4Kα, 20 μM ATP (unless otherwise stated), 10 mM MgCl2, 20 mM HEPES pH 7.3, and 10 mCi [γ-^32P]-ATP for 1 h at RT. […] The reaction was terminated by 5 μl 12N HCl. After termination, 175 μl PBS buffer and 380 μl methanol/chloroform mix (1:1, v/v) containing 10 μg/ml bovine brain extract (type I; Folch Fraction I; Sigma Aldrich) were added. The lower organic phase, containing the extracted lipids, was collected and dried under vacuum. The dried lipids were re-suspended in 25 μl methanol/chloroform mix (2:1, v/v), and separated by thin-layer chromatography (TLC). For TLC, heat activated 1% potassium oxalate-coated silica gel 60 plates were used (20 cm×20 cm, Merck), and the running solvent contained water, acetic acid, methanol, acetone, and chloroform (3:32:24:30:64 mix by volume). Radiolabeled lipid product was quantified with a phosphor imager (Bio-Rad Molecular Imager FX). […] The inhibitor was usually incubated with the enzyme at RT for 20 min before the reaction was initiated.

PI5P4Kα [1] = target: T2, PI5P4Kα (Homo sapiens, UniProt P48426); assay: PI5P4Kα kinase assay, 32P-labelled PI(4,5)P2 product resolved by TLC
T2 sequence (P48426 1-406): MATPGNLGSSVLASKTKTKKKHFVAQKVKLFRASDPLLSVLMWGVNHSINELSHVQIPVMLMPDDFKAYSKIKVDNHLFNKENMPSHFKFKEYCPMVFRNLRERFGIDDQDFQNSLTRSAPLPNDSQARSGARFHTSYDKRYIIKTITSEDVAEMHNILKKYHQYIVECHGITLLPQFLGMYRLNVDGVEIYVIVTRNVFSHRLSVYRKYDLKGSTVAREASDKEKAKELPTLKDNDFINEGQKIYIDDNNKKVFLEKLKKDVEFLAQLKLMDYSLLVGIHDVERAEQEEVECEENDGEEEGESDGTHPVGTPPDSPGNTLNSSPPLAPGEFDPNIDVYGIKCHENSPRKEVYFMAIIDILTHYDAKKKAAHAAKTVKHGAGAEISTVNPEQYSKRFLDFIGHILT
Method: as §2

AMPK = assay: Western blot of ACC phosphorylation by AMPK in myotubes (FIG. 3F); format: cell-based
Method: (§1) After wash with cold DPBS buffer, cells were lysed in RIPA buffer that contained 50 mM Tris-HCl pH 8.0, 150 mM NaCl, 1 mM EDTA, 1 mM EGTA, 1% NP-40, 0.5% sodium deoxycholate, 0.1% SDS, and protease and phosphatase inhibitor cocktails (Roche). Total protein concentrations were measured using a BCA assay (Thermo scientific). Cell lysate (about 80 μg protein) was resolved by SDS-PAGE and blotted onto PVDF membranes. The membranes were probed overnight at 4° C. with appropriate primary antibodies (Cell Signaling Technology) and incubated with secondary fluorescent antibodies (LI-COR Biosciences) for 1 hr at room temperature before imaging by an Odyssey CLx system.

PI5P4Kα [2] = target: T2, PI5P4Kα; assay: PI5P4Kα in vitro kinase assay based on ADP detection (ADP-Glo), kinetic studies; format: biochemical; design: made in house
Method: Lipid vesicles [2:1 mixture of DPPS and PI(5)P] were prepared by sonication and extrusion in a buffer containing 0.1% CHAPS, 20 mM HEPES pH 7.3, 200 mM NaCl, 20 mM MgCl2, aliquoted, and stored at −80° C. Immediately before assay, thawed lipid suspension was sonicated and extruded again, and mixed with PI5P4Kα freshly purified in the same buffer. […] 20 nl of library compound (10 mM DMSO solution) was transferred to the well by an Aquarius system (Tecan). The plates were shaken for 30 s. 1 μl ATP solution was then added to initiate the reaction (final concentrations: PI(5)P 100 μM; lipid kinase 2 μg/ml; ATP 40 μM; library compound 20 μM). After incubating at RT in the dark for 1 h, 5 μl ADP-Glom reagent (Promega) was added to stop the reaction. After 40 min further incubation, 10 μl Kinase Detection reagent (Promega) was added. After 30 min, the luminescence was measured with an EnVision Multimode Plate Reader.
In vitro kinase assay based on ADP (product) detection was performed similarly in a white solid-bottom 96-well plate (Corning 3600). Within each well, 10 μl final reaction mixture contains 100 μM PI(5)P, 2 μg/ml PI5P4Kα, 10 μM ATP (in FIG. 1B, ATP concentration varied from 10 μM to 100 μM), 10 mM MgCl2, 0.1% CHAPS and 20 mM HEPES pH 7.3. After reaction, 10 μl ADP-Glo™ reagent and 20 μl Kinase Detection reagent were used for luminescence reading. […]

myotubes = assay: Glucose consumption and lactate production in myotube culture media; format: cell-based
Method: To measure glucose consumption and lactate production, a total of 1×10^5 cells were seeded into each well of a 12-well plate and cultured in the presence of compound for 48 hrs. The culture media were collected and deproteinized by centrifugation using an Amicon Ultra centrifugal filter (3 kDa cut-off), while cells were lysed and used for protein concentration determination by BCA assay. The media were assayed immediately for glucose and lactate levels using colorimetric assay kits from BioVision following the manufacturer's protocols. The values were normalized against protein concentration. All measurements were made in triplicate.

L6 myotubes = assay: 2-deoxyglucose uptake; format: cell-based, rat; conditions: overnight treatment with 20 μM 7a or 1 mM metformin
Method: To measure 2-deoxyglucose (2-DG) uptake, L6 myotubes were treated with compound or DMSO control overnight in the absence of serum in α-MEM. Following treatment, cells were washed twice with KRH buffer (50 mM HEPES pH 7.4, 137 mM NaCl, 4.7 mM KCl, 1.85 mM CaCl2, 1.3 mM MgSO4) containing 0.1% BSA. Residual wash buffer was removed by aspiration. Cells were then incubated for 10 min at 37° C. in a KRH buffer containing 0.1% BSA, 5 mM unlabeled 2-DG and 2 μCi/ml [1,2-^3H(N)]-2-deoxy-D-glucose (PerkinElmer). The uptake was terminated by washing four times with ice-cold KRH buffer containing 0.1% BSA. Nonspecific 2-DG uptake into cells was determined in the presence of 10 μM cytochalasin B, which inhibits glucose transporters, and subtracted. The cells were lysed with 0.05 M NaOH for 2 hrs at 37° C. 10 μl cell lysate was used to quantify protein concentration by BCA assay. The remaining sample was transferred to a scintillation vial containing 3 ml Opti-Fluor liquid scintillation cocktail (PerkinElmer), and radioactivity was determined using a Beckman Coulter LS 6500 scintillation system and normalized against protein concentration.

C2Cl2 myotubes = assay: Immunoblot analysis of signaling in C2Cl2 myotubes; format: cell-based, mouse; conditions: FIG. 3E
Method: BT-474 and MCF7 breast cancer cells, C2Cl2 mouse myoblast cells, and HEK 293T cells were maintained in high-glucose DMEM medium containing 10% FBS. L6 rat myoblast cells were maintained in α-MEM medium containing 10% FBS. For differentiation into myotubes, C2Cl2 cells were kept in DMEM medium containing 2% horse serum for 5 days, and L6 cells were kept in α-MEM medium containing 2% FBS for 7 days. Amino-acid-free DMEM medium was prepared using powder from USBio, and MEM amino acids solution was from Gibco. Media were all supplemented with 100 U/ml penicillin/streptomycin. Cell lines were purchased from ATCC.
as §1

PI5P4Kα [3] = target: T2, PI5P4Kα; assay: Competitive fluorescent binding assay with TNP-ATP; design: made in house; conditions: displacement of 10 μM TNP-ATP from 6.8 μM PI5P4Kα

- Ki (PI5P4Kβ): 100 to 200 nM
Compound: CN1C(=O)[C@@H](Cc2ccccn2)N(C2CCCC2)c2nc(Nc3ccc4[nH]nnc4c3)ncc21 [7k, (R)-2-((1H-benzo[d][1,2,3]triazol-5-yl)amino)-8-cyclopentyl-5-methyl-7-(pyridin-2-ylmethyl)-7,8-dihydropteridin-6(5H)-one]

- potency/affinity for PI5P4Kβ in vitro (PI5P4Kβ): no effect
- potency/affinity for PI5P4Kα in vitro (PI5P4Kα [1]): weaken the affinity
Compound: CN1C(=O)[C@@H](CC2CCCCC2)N(C2CCCC2)c2nc(Nc3cc(Cl)c(O)c(Cl)c3)ncc21 [7b, (R)-7-(cyclohexylmethyl)-8-cyclopentyl-2-((3,5-dichloro-4-hydroxyphenyl)amino)-5-methyl-7,8-dihydropteridin-6(5H)-one]
- selectivity between PI5P4Kα and PI5P4Kβ (PI5P4Kβ): more specific for PI5P4Kβ; also recorded: more potent against PI5P4Kβ than PI5P4Kα
- ACC phosphorylation / AMPK activation (AMPK): activated; also recorded: enhanced

- Ki (PI5P4Kβ): 400 to 800 nM
- Ki (PI5P4Kα [1]): 50 to 100 nM
Compound: CN1C(=O)[C@@H](Cc2ccccn2)N(C2CCCC2)c2nc(Nc3ncc(C(=O)O)s3)ncc21 [7j, (R)-2-((8-cyclopentyl-5-methyl-6-oxo-7-(pyridin-2-ylmethyl)-5,6,7,8-tetrahydropteridin-2-yl)amino)thiazole-5-carboxylic acid]

- Ki (PI5P4Kβ): 75 to 150 nM
- Ki (PI5P4Kα [1]): 55 to 110 nM
Compound: CN1C(=O)[C@@H](CC2CCCC2)N(C2CCCC2)c2nc(Nc3cc(F)c(C(=O)O)c(F)c3)ncc21 [7i, (R)-4-((8-cyclopentyl-7-(cyclopentylmethyl)-5-methyl-6-oxo-5,6,7,8-tetrahydropteridin-2-yl)amino)-2,6-difluorobenzoic acid]

- Ki (PI5P4Kβ): 80 to 230 nM
- Ki (PI5P4Kα [1]): 200 to 700 nM
Compound: CN1C(=O)[C@@H](CC2CCCC2)N(C2CCCC2)c2nc(Nc3ccc4[nH]nnc4c3)ncc21 [7f, (R)-2-((1H-benzo[d][1,2,3]triazol-5-yl)amino)-8-cyclopentyl-7-(cyclopentylmethyl)-5-methyl-7,8-dihydropteridin-6(5H)-one]

- Ki (PI5P4Kβ): 20 to 60 nM
- Ki (PI5P4Kα [1]): 20 to 60 nM
Compound: CN1C(=O)[C@@H](Cc2ccccn2)N(C2CCCC2)c2nc(Nc3cc(Cl)c(O)c(Cl)c3)ncc21 [7e, (R)-8-cyclopentyl-2-((3,5-dichloro-4-hydroxyphenyl)amino)-7-(pyridine-2-ylmethyl)-5-methyl-7,8-dihydropteridin-6(5H)-one]

Compound: CC[C@@H]1C(=O)N(C)c2cnc(Nc3ccc(C(=O)NC4CCN(C)CC4)cc3OC)nc2N1C1CCCC1 [BI-2536]
- ACC phosphorylation / AMPK activation (AMPK): did not increase; also recorded: did not induce

- Kis for PI5P4Kα compared with BI-D1870 (PI5P4Kα [2]; ATP 10 μM): slightly higher
Compound: CC[C@@H]1C(=O)N(C)c2cnc(Nc3ccc(C(=O)N[C@H]4CC[C@H](N5CCN(CC6CC6)CC5)CC4)cc3OC)nc2N1C(C)C [volasertib]

- Ki (PI5P4Kβ): 100 to 280 nM
- Ki (PI5P4Kα [1]): 30 to 90 nM
Compound: CN1C(=O)[C@@H](CC2CCCC2)N(C2CCCC2)c2nc(Nc3ncc(C(=O)O)s3)ncc21 [7g, (R)-2-((8-cyclopentyl-7-(cyclopentylmethyl)-5-methyl-6-oxo-5,6,7,8-tetrahydropteridin-2-yl)amino)thiazole-5-carboxylic acid]

- Ki (PI5P4Kβ): 80 to 160 nM
- Ki (PI5P4Kα [1]): 110 to 220 nM
Compound: CN1C(=O)[C@@H](CC2CCCC2)N(C2CCCC2)c2nc(Nc3csc(C(=O)O)c3)ncc21 [7h, (R)-4-((8-cyclopentyl-7-(cyclopentylmethyl)-5-methyl-6-oxo-5,6,7,8-tetrahydropteridin-2-yl)amino)thiophene-2-carboxylic acid]

Compound: CN(C)C(=N)N=C(N)N [metformin, reference compound]
- molar fraction of consumed glucose used for lactate fermentation (myotubes; 48 hours): 41%
- lactate accumulated in the media (myotubes; 48 hours after treatment): 8.6 mM
- reduction of glucose concentration in the media (myotubes; 48 hours after treatment): 10.6 mM
- rate of glucose uptake (labeled 2-deoxyglucose) (L6 myotubes): doubled

Compound: CS(=O)(=O)N1CCN(Cc2cc3nc(-c4cccc5[nH]ncc45)nc(N4CCOCC4)c3s2)CC1 [GDC-0941, reference compound]
- insulin-induced Akt phosphorylation at Ser-473 (C2Cl2 myotubes): eliminated

- Kd (PI5P4Kα [3]): ~1300 nM
- Ki (PI5P4Kα [2]; competitive with ATP): ~1000 nM
Compound: CC(C)CCN1c2nc(Nc3cc(F)c(O)c(F)c3)ncc2N(C)C(=O)C1C (stereo not shown) [BI-D1870]
- ACC phosphorylation / AMPK activation (AMPK): did not increase; also recorded: did not induce

Compound: C[C@@H]1COCCN1c1cc(=O)n2c(n1)N(Cc1cncc(Cl)c1)[C@H](C(F)(F)F)CC2 [SAR405, reference compound]
- mTORC1 activation by amino acids (C2Cl2 myotubes): prevented
